Key:
rat [1] = details: Subchronic oral toxicity in rodents, fischer, Feed, dose end: 14 week, group: systemic
mouse [2] = details: Carcinogenicity; b6c3f1; Oral; Feed; dose end: 2 year; group: systemic; systemic / pathology microscopic / liver / hypertrophy
rat [3] = details: Combined chronic toxicity/carcinogenicity, fischer, Oral, Feed, dose end: 2 year, group: systemic
mouse [4] = details: Subchronic oral toxicity in rodents, b6c3f1, Feed, dose end: 14 week, group: systemic
rat [5] = details: Subchronic oral toxicity in rodents, sprague dawley, Feed, dose end: 90 day, group: systemic, systemic / in life observation / clinical signs / soft stools + systemic / in life observation / clinical signs / defecation (diarrhea)
dog [6] = details: Chronic toxicity, beagle, Oral, Feed, dose end: 364 day, group: systemic
rat [7] = details: Multigenerational reproductive toxicity study, wistar, Oral, Feed, dose end: 2 generation
mouse [8] = details: Carcinogenicity, other, Oral, Feed, dose end: 78 week, group: systemic
rat [9] = details: Prenatal developmental toxicity study, wistar, Oral, Gavage/Intubation, dose end: 19 GD
rat [10] = details: Chronic toxicity; wistar; Oral; Feed; dose end: 364 day; group: systemic; systemic / pathology gross / eye / opacity + systemic / pathology microscopic / eye / corneal pannus + systemic / pathology microscopic / …
rabbit [11] = details: Prenatal developmental toxicity study, himalayan, Oral, Gavage/Intubation, dose end: 28 GD
mouse [12] = details: Subchronic oral toxicity in rodents, other, Feed, dose end: 91 day, group: systemic
rat [13] = details: Subchronic oral toxicity in rodents, wistar, Feed, dose end: 13 week, group: systemic
rat [14] = details: Carcinogenicity, wistar, Oral, Feed, dose end: 24 month, group: systemic
rabbit [15] = details: Prenatal developmental toxicity study, new zealand white, Oral, Gavage/Intubation, dose end: 28 GD
dog [16] = details: Subchronic oral toxicity in nonrodent, beagle, Feed, dose end: 90 day, group: systemic
[17] = systemic / clinical chemistry / alkaline phosphatase (alp/alk) / alkaline phosphatase (alp/alk)
[18] = systemic / in life observation / body weight / body weight + systemic / pathology microscopic / liver / hypertrophy
[19] = systemic / hematology / platelet / platelet
[20] = systemic / in life observation / body weight / body weight + systemic / in life observation / body weight / body weight gain + systemic / …
[21] = systemic / in life observation / food consumption / food efficiency + systemic / urinalysis / ketones / ketones + systemic / urinalysis / ph…
[22] = group: offspring, systemic / organ weight / spleen / absolute + systemic / organ weight / spleen / relative to body weight
[23] = group: parental, systemic / organ weight / kidney / absolute + systemic / organ weight / kidney / relative to body weight + systemic / organ weight / liver…
[24] = group: parental, systemic / organ weight / thyroid gland / absolute
[25] = systemic / in life observation / body weight / body weight + systemic / in life observation / body weight / body weight gain
[26] = group: developmental, developmental / developmental malformation / bone / full supernumerary + developmental / developmental malformation / bone / misshapen + …
[27] = group: maternal, systemic / in life observation / body weight / body weight gain
[28] = group: developmental, developmental / developmental malformation / bone / [other] + developmental / developmental malformation / bone / incomplete ossification + …
[29] = group: maternal, reproductive / reproductive performance / aborted / aborted + systemic / in life observation / body weight / body weight gain + systemic / …
[30] = systemic / in life observation / food consumption / food consumption + systemic / organ weight / testes / absolute + systemic / organ weight…
[31] = systemic / pathology gross / thyroid gland / altered colloid
[32] = systemic / in life observation / mortality / mortality + systemic / pathology gross / lymph node / enlarged + systemic / pathology gross / …
[33] = group: developmental, developmental / developmental malformation / bone / ossification sites + developmental / developmental malformation / bone / supernumerary
[34] = group: developmental, developmental / developmental malformation / bone / ossification sites + developmental / developmental malformation / bone / supernumerary…
[35] = group: maternal, systemic / clinical chemistry / tyrosine / tyrosine
[36] = systemic / in life observation / body weight / body weight gain + systemic / in life observation / food consumption / food efficiency + …
[37] = systemic / urinalysis / ketones / ketones

`O=S(=O)(c1ccc(Cl)cc1)c1ccc(Cl)cc1` [4,4'-Dichlorodiphenyl sulfone] was tested, and the LEL (rat [1]; [17]) was 2 mg/kg/day, the NEL (rat [1]; [17]) was < 2 mg/kg/day and the NOAEL (rat [1]; systemic / organ weight / liver / absolute + systemic / organ weight / liver / relative to body weight + systemic / clinical chemistry / …) was 2 mg/kg/day. For the same molecule, the LOAEL (rat [1]; systemic / organ weight / liver / absolute + systemic / organ weight / liver / relative to body weight + systemic / pathology microscopic / …) was 6 mg/kg/day, the LEL (mouse [2]) was 3.8 mg/kg/day and the LOAEL (mouse [2]) was 3.8 mg/kg/day. For the same molecule, the NEL (mouse [2]) was < 3.8 mg/kg/day, the NOAEL (mouse [2]) was < 3.8 mg/kg/day and the LEL (rat [3]; systemic / in life observation / body weight / body weight) was 1.5 mg/kg/day. The NEL (rat [3]; [18]) was 0.5 mg/kg/day, the NOAEL (rat [3]; [18]) was 1.5 mg/kg/day and the LOAEL (rat [3]; systemic / pathology microscopic / liver / hypertrophy) was 5 mg/kg/day. For the same molecule, the LEL (mouse [4]; [19]) was 3.5 mg/kg/day, the NEL (mouse [4]; [19]) was < 3.5 mg/kg/day and the LOAEL (mouse [4]; [20]) was 50 mg/kg/day. It also gave an NOAEL (mouse [4]; [20]) of 15 mg/kg/day.

For `CCCCCC[C@H]1C(=O)O[C@H](C)[C@H](NC(=O)c2cccc(NC=O)c2O)C(=O)O[C@@H](C)[C@@H]1OC(=O)CC(C)C` [Antimycin A], the LEL (rat [5]) was 0.5 mg/kg/day, the LOAEL (rat [5]) was 0.5 mg/kg/day and the NEL (rat [5]) was < 0.5 mg/kg/day. For the same molecule, the NOAEL (rat [5]) was < 0.5 mg/kg/day.

`Cc1c(C(=O)c2c[nH]n(C)c2=O)ccc(S(C)(=O)=O)c1C1=NOCC1` [Topramezone] was tested, and the LEL (dog [6]; [21]) was 2.9 mg/kg/day, the NEL (dog [6]; [21]) was < 2.9 mg/kg/day and the LOAEL (dog [6]; systemic / pathology microscopic / thyroid gland / hyperplasia) was 15.3 mg/kg/day. The NOAEL (dog [6]; systemic / pathology microscopic / thyroid gland / hyperplasia + systemic / in life observation / body weight / body weight + systemic / in …) was 2.9 mg/kg/day, the NOAEL (rat [7]; group: offspring, developmental / developmental landmark / preputial separation / preputial separation + developmental / offspring survival late / viability …) was 0.4 mg/kg/day and the LOAEL (rat [7]; group: offspring, developmental / developmental landmark / preputial separation / preputial separation + systemic / in life observation / body weight / litter…) was 4.2 mg/kg/day. For the same molecule, the LEL (rat [7]; [22]) was 0.4 mg/kg/day, the NEL (rat [7]; [22]) was < 0.4 mg/kg/day and the LOAEL (rat [7]; [23]) was 4.2 mg/kg/day. For the same molecule, the NOAEL (rat [7]; [23]) was 0.4 mg/kg/day, the LEL (rat [7]; [24]) was 0.5 mg/kg/day and the NEL (rat [7]; [24]) was < 0.5 mg/kg/day. For the same molecule, the LOAEL (mouse [8]; [25]) was 19 mg/kg/day, the NOAEL (mouse [8]; [25]) was < 19 mg/kg/day and the LEL (mouse [8]; [20]) was 19 mg/kg/day. The NEL (mouse [8]; [20]) was < 19 mg/kg/day, the LEL (rat [9]; [26]) was 100 mg/kg/day and the LOAEL (rat [9]; [26]) was 100 mg/kg/day. For the same molecule, the NEL (rat [9]; [26]) was < 100 mg/kg/day, the NOAEL (rat [9]; [26]) was < 100 mg/kg/day and the LEL (rat [9]; [27]) was 100 mg/kg/day. The LOAEL (rat [9]; [27]) was 100 mg/kg/day, the NEL (rat [9]; [27]) was < 100 mg/kg/day and the NOAEL (rat [9]; [27]) was < 100 mg/kg/day. For the same molecule, the LEL (rat [10]) was 3.9 mg/kg/day, the LOAEL (rat [10]) was 3.9 mg/kg/day and the NEL (rat [10]) was 0.4 mg/kg/day. For the same molecule, the NOAEL (rat [10]) was 0.4 mg/kg/day, the LEL (rabbit [11]; [28]) was 50 mg/kg/day and the LOAEL (rabbit [11]; [28]) was 50 mg/kg/day. For the same molecule, the NEL (rabbit [11]; [28]) was < 50 mg/kg/day, the NOAEL (rabbit [11]; [28]) was < 50 mg/kg/day and the LEL (rabbit [11]; [29]) was 450 mg/kg/day. The LOAEL (rabbit [11]; [29]) was 450 mg/kg/day, the NEL (rabbit [11]; [29]) was 150 mg/kg/day and the NOAEL (rabbit [11]; [29]) was 150 mg/kg/day. For the same molecule, the LOAEL (mouse [12]; [30]) was > 2290 mg/kg/day, the NOAEL (mouse [12]; [30]) was ≥ 2290 mg/kg/day and the LEL (mouse [12]; systemic / organ weight / liver / relative to body weight) was 406 mg/kg/day. For the same molecule, the NEL (mouse [12]; systemic / organ weight / liver / relative to body weight + systemic / in life observation / body weight / body weight gain + systemic / in …) was 51 mg/kg/day, the LEL (rat [13]; [31]) was 1.1 mg/kg/day and the NEL (rat [13]; [31]) was < 1.1 mg/kg/day. It also gave an LOAEL (rat [13]; systemic / pathology microscopic / pancreas / degeneration) of 2.1 mg/kg/day, an NOAEL (rat [13]; systemic / pathology microscopic / pancreas / degeneration + systemic / clinical chemistry / alkaline phosphatase (alp/alk) / alkaline …) of 1.1 mg/kg/day and an LEL (rat [14]; [32]) of 0.4 mg/kg/day. The NEL (rat [14]; [32]) was < 0.4 mg/kg/day, the NOAEL (rat [14]; [32]) was 0.4 mg/kg/day and the LOAEL (rat [14]; systemic / pathology microscopic / thyroid gland / hyperplasia + systemic / pathology microscopic / thyroid gland / hypertrophy + systemic…) was 3.6 mg/kg/day. For the same molecule, the LEL (rabbit [15]; [33]) was 5 mg/kg/day, the LOAEL (rabbit [15]; [33]) was 5 mg/kg/day and the NEL (rabbit [15]; [34]) was 0.5 mg/kg/day. The NOAEL (rabbit [15]; [34]) was 0.5 mg/kg/day, the LEL (rabbit [15]; [35]) was 0.5 mg/kg/day and the LOAEL (rabbit [15]; [35]) was 0.5 mg/kg/day. The NEL (rabbit [15]; [35]) was < 0.5 mg/kg/day, the NOAEL (rabbit [15]; [35]) was < 0.5 mg/kg/day and the LOAEL (dog [16]; [36]) was 1510 mg/kg/day. The NOAEL (dog [16]; [36]) was 535 mg/kg/day, the LEL (dog [16]; [37]) was 182 mg/kg/day and the NEL (dog [16]; [37]) was < 182 mg/kg/day.
